Values of other authors in patent US12220388B2, “Uses of curcuminoid compositions” (Givaudan France Naturals SAS, priority 2018, dated 2025).

Test system: Caco-2 cells

predicted absorption in humans (from correlation of Caco-2 Papp with human absorption in vivo): 0-20% | Papp (apparent permeability coefficient) (in vitro human intestinal cells model): 0.1 ×10⁻⁶ cm/s
SMILES: COc1cc(/C=C/C(=O)CC(=O)/C=C/c2ccc(O)c(OC)c2)ccc1O [curcumin]
